From patent US6673790B1, “Indolin-2-one derivatives, preparation and their use as ocytocin receptor ligands” (Sanofi-Synthelabo, priority 2002, dated 2004) come the findings set out here.

The target of data set [1] is T1, cells expressing human oxytocin receptors (Homo sapiens, UniProt P30559).
T1 sequence (P30559 1-389): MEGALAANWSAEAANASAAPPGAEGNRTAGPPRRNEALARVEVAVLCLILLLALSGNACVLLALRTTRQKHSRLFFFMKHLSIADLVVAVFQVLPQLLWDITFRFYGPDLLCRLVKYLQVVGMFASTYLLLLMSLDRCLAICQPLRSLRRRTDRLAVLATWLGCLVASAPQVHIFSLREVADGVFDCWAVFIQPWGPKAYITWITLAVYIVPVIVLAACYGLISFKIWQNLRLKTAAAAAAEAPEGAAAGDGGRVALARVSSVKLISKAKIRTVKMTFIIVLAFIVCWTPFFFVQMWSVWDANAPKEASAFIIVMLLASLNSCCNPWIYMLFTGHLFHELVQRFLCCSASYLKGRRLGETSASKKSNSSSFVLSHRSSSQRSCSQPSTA
Put plainly: measurement of intracellular calcium, agonist or antagonist nature. The format is cell-based. Here is the method:
The agonist or antagonist nature of the compounds is determined in vitro in a test for the measurement of intracellular calcium with respect to cells expressing human oxytocin receptors according to the general technique described in Am. J. Physiol., 268 (Heart Circ. Physiol., 37), 1995, H404-H410.

Data set [2] deals with T2, human uterine oxytocin receptors (Homo sapiens, UniProt P30559).
T2 construct: host or cells: membrane preparation
T2 sequence (P30559 1-389): T1 sequence (P30559 1-389)
Put plainly: in vitro binding test: displacement of a radioiodinated oxytocin analogue in a membrane preparation. The method, then: The compounds according to the invention have formed the subject of biochemical and pharmacological studies. The affinity of the compounds according to the invention for oxytocin receptors was determined in an in vitro binding test using the method described by J. Elands et al. in Eur. Pharmacol., 1987, 147, 192-207. This method consists in studying in vitro the displacement of a radioiodinated oxytocin analogue at the oxytocin receptors in a membrane preparation of human uterine oxytocin receptors. The IC50 values (concentration which inhibits 50% of the binding of the radioiodinated oxytocin analogue to its receptors) are low and vary from 10^−10 to 10^−6 M in the latter test.

Data set [3] deals with human vasopressin V1a receptors (Homo sapiens, UniProt P37288). Put plainly: affinity for vasopressin V1a receptors (method of Thibonnier et al.). The format is binding. The following applies: read-out: IC50 with respect to the V1a receptors. From the text:
(§1) The affinity of the compounds according to the invention for human vasopressin V1a receptors (method described by M. Thibonnier et al. in J. Biol. Chem., 1994, 269, 3304-3310), V1b receptors (method described by T. Sugimoto et al. in J. Biol. Chem., 1994, 269, 27088-27092) and V2 receptors (method described by M. Birnbaumer et al. in Nature (Lond.), 1992, 357, 333-335) has also been studied. The compounds studied have little or no affinity for the V1a, V1b and V2 receptors.

The target in data set [4] is T3, human vasopressin V1b receptors (Homo sapiens, UniProt P47901).
T3 sequence (P47901 1-424): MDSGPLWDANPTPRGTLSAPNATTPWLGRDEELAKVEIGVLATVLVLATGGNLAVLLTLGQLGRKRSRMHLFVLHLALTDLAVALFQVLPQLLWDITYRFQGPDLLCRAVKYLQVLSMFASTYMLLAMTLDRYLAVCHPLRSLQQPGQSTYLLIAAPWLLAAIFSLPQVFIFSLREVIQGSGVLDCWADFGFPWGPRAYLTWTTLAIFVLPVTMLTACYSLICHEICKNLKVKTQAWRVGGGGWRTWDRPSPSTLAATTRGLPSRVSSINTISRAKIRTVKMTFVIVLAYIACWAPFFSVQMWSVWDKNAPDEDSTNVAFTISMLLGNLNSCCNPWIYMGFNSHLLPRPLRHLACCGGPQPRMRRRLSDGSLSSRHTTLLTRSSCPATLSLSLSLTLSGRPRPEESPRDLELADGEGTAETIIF
Kind of data set: affinity for vasopressin V1b receptors (method of Sugimoto et al.). The conditions noted are these: read-out: IC50 with respect to the V1b receptors. Format: binding.
From the text: as §1

For data set [5], the target named is human vasopressin V2 receptors (Homo sapiens, UniProt P30518). Kind of data set: affinity for vasopressin V2 receptors (method of Birnbaumer et al.). The conditions noted are these: read-out: IC50 with respect to the V2 receptors. Format: binding.
Chain of human vasopressin V2 receptors (P30518 whole entry): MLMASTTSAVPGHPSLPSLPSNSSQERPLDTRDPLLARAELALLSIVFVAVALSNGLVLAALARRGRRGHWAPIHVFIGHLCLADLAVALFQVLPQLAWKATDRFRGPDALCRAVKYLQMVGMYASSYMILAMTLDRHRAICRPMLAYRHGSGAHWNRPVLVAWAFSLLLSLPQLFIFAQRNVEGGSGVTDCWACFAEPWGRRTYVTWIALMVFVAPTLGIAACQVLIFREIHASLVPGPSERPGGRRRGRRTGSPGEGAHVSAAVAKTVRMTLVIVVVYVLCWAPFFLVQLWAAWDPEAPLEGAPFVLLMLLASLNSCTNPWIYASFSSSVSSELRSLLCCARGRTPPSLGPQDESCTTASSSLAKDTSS
From the text: as §1

Some results are limits rather than exact numbers.

Chain of human vasopressin V1a receptors (P37288 whole entry): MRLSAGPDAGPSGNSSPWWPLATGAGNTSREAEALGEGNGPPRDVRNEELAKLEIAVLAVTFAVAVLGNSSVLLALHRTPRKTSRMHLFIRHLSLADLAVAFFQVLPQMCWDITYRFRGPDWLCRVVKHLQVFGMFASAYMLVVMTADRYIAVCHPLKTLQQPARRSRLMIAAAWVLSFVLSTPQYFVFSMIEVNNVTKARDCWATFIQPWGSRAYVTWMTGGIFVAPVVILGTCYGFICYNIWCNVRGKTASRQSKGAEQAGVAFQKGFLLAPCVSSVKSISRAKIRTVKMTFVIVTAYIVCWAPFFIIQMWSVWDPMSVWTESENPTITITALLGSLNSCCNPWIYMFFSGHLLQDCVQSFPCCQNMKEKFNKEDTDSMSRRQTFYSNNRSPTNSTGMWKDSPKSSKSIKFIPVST

`COCC1CCCN1C(=O)c1ccc(Cl)c(C2(C)C(=O)N(Cc3ccc(OC)cc3OC)c3ccc(Cl)cc32)c1` (stereo not shown) had a melting point of 98 °C.
On the same count and under the same terms, under `CCN(CCc1ccccc1)C(=O)c1ccc(Cl)c(C2(C)C(=O)N(Cc3ccc(OC)cc3OC)c3ccc(Cl)cc32)c1` (stereo not shown) stands 111.7 °C; under `CCN(CCOC)C(=O)c1ccc(Cl)c(C2(C)C(=O)N(Cc3ccc(OC)cc3OC)c3ccc(Cl)cc32)c1` (stereo not shown), 86.3 °C.
Molecule `CCN(C)C(=O)c1ccc(Cl)c(C2(C)C(=O)N(Cc3ccc(OC)cc3OC)c3ccc(Cl)cc32)c1` (stereo not shown) gave a melting point of 166 °C.
`COCC(=O)Nc1ccc(Cl)c(C2(C)C(=O)N(Cc3ccc(OC)cc3OC)c3ccc(Cl)cc32)c1` (stereo not shown) displayed a melting point of 191 °C.
Still for that read-out and setting: under `CCNC(=O)c1ccc(Cl)c(C2(C)C(=O)N(Cc3ccc(OC)cc3OC)c3ccc(Cl)cc32)c1` (stereo not shown) (hydrate or solvate) stands 248 °C.
On to `COc1ccc(CN2C(=O)C(C)(c3ccccc3Cl)c3cc(Cl)ccc32)c(OC)c1` (single isomer, unassigned) [dextrorotatory enantiomer of Example 1, 5-Chloro-3-(2-chlorophenyl)-1-(2,4-dimethoxybenzyl)-3-methylindolin-2-one], for which the “agonist or antagonist nature” value in data set [1] is recorded as “antagonist”. Further, the IC50 in data set [1] (read-out: IC50 as antagonist) is 3.2 ± 1.9 nM.
As to `COCCOCc1ccc(Cl)c(C2(C)C(=O)N(Cc3ccc(OC)cc3OC)c3ccc(Cl)cc32)c1` (stereo not shown), the melting point was 114 °C.
`CCN(C(=O)c1ccc(Cl)c(C2(C)C(=O)N(Cc3ccc(OC)cc3OC)c3ccc(Cl)cc32)c1)C(C)C` (stereo not shown) gave a melting point of 102.8 °C.
For the molecule `COc1ccc(CN2C(=O)C(C)(c3cc(CN4CCOCC4)ccc3Cl)c3cc(Cl)ccc32)c(OC)c1` (stereo not shown), the melting point turned out to be 145 °C.
As to `COc1ccc(CN2C(=O)C(C)(c3ccccc3Cl)c3cc(Cl)ccc32)c(OC)c1` (racemic) [Example 1, 5-Chloro-3-(2-chlorophenyl)-1-(2,4-dimethoxybenzyl)-3-methylindolin-2-one], the half-maximal inhibitory concentration (IC50) is less than 50 nM in data set [2], greater than 1000 nM in data set [3], greater than 1000 nM in data set [4] and greater than 1000 nM in data set [5].
The molecule `COC(=O)C1CCCCN1C(=O)c1ccc(Cl)c(C2(C)C(=O)N(Cc3ccc(OC)cc3OC)c3ccc(Cl)cc32)c1` (stereo not shown) registered a melting point of 116 °C.
`COc1ccc(CN2C(=O)C(C)(c3cc(C(=O)N(C)C)ccc3Cl)c3cc(Cl)ccc32)c(OC)c1` (stereo not shown) (hydrate or solvate) registered a melting point of 184 °C.
For the molecule `COc1ccc(CN2C(=O)C(C)(c3cc(C(=O)NC4CCCCC4)ccc3Cl)c3cc(Cl)ccc32)c(OC)c1` (stereo not shown), the melting point is 129.8 °C.
Same read-out and setting: in the case of `COc1ccc(CN2C(=O)C(C)(c3cc(N(C)S(=O)(=O)c4ccccc4)ccc3Cl)c3cc(Cl)ccc32)c(OC)c1` (stereo not shown) (hydrate or solvate) it was 73 °C.

By melting point is commonly meant the temperature of the solid-liquid transition. In general, IC50 refers to the concentration needed to halve the response being measured.
